The values that follow come from patent US12422427B2, “Compounds for treatment of diseases and methods of screening therefor” (Max-Planck-Gesellschaft zur Förderung der Wissenschaften …, priority 2018, dated 2025).

The subject of assay [1] is EWSR1, TIAL1, PABPC1, G3BP1. The assay is described as follows: Panel of HeLa lines expressing GFP-labelled stress granule proteins, arsenate stress. It counts as cell-based. The note with it: 1 mM arsenate, 10 μM compound. The protocol: It was anticipated that a useful therapeutic would prevent all PLD-containing stress granule proteins from localising to stress granules. The inventors used 1 mM arsenate to stress a panel of HeLa cell lines expressing GFP fusions of stress granule proteins (EWSR1, TIAL1, PABPC1, G3BP1) with either no treatment or 10 μM lipoic acid or lipoamide.
Compound effects were assessed under a variety of conditions in HeLa or iPS cells expressing wild-type or P525L FUS GFP by live cell imaging. Different combinations of 1 h pre-treatment compound or pre-stress with arsenate followed by 1 h treatment with compound and/or stress with arsenate. Unless otherwise indicated, cells were pre-treated for 1 h using 10 μM compound from 10 mM stock in DMSO (or an equal volume of DMSO control) then stressed for 1 h with 1 mM potassium arsenate still in the presence of compound. GFP fluorescence was imaged by widefield epifluorescence using an inverted Olympus IX71 microscope with an Olympus 100× NA 1.4 Plan Apo oil immersion objective and a CoolSNAP HQ CCD camera (Photometrics), using a DeltaVision climate control unit (37° C., 5% CO2) (Applied Precision). The kinetics of pre-stress followed by treatment was analysed from images captured at 2 min intervals for 100 min, for single time points images were captured after 1 h unless otherwise indicated.

Another assay addresses T1, FUS GFP (Homo sapiens, UniProt P35637).
T1 construct: His MBP (N, cleaved yes); made in house; host or cells: baculovirus/insect cell expression system
T1 sequence (P35637 1-526): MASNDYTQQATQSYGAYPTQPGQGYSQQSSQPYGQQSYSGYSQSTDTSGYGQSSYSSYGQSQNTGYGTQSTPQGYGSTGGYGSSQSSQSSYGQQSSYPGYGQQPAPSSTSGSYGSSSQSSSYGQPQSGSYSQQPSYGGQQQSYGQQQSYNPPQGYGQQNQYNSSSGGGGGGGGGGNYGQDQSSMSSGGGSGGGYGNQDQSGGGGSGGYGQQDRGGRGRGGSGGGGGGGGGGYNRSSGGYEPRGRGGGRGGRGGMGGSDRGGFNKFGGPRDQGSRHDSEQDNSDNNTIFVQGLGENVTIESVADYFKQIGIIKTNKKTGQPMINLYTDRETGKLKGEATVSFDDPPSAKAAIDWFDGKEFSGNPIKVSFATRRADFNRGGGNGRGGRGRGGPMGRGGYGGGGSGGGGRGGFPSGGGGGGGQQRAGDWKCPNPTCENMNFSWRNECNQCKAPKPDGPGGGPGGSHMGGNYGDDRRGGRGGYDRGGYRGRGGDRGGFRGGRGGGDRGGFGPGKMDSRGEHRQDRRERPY
Put plainly: Salt (KCl) sensitivity of FUS GFP droplet formation in vitro. Format: biochemical. The note with it: 100 μM compound, 2.8 μM FUS GFP. The protocol:
FIG. 6A) Droplets formed by 2.8 μM FUS GFP in vitro with different concentrations of KCl (which inhibits droplet formation) with 100 μM lipoamide, lipoic acid or equivalent DMSO solvent control (1%). Lipoamide and lipoic acid subtly promote droplet formation. FIG. 6B) Effect of lipoamide and lipoic acid on G156E FUS GFP droplet ‘aging’ while shaking, relative to an equivalent DMSO solvent control (0.3%). Both compounds delay fibre formation. FIG. 6C) Representative fluorescence recovery after photobleaching (FRAP) of FUS droplets and fibres formed during the aging shown in FIG. 6B). Aged droplets treated with lipoamide or lipoic acid retain fast FRAP indicating liquidity. FIG. 6D) Quantitation of fluorescence signal intensity illustrated in FIG. 6C). Error bars represent standard deviation.
It was determined if lipoic acid or lipoamide affected the conditions under which FUS would phase separate in vitro. […]
For in vitro solidification assays, FUS GFP in storage buffer was diluted in water to give 10 μM FUS, 50 mM Tris·HCl pH 7.4 and 1 mM DTT in a 20 μl volume in non-binding clear bottom 384 well plates (Greiner Bio-One, 781906). […] Fibre and droplet formation were analysed by widefield epifluorescence using a DeltaVision Elite microscope (GE Healthcare Life Sciences) with a Plan ApoN 60× NA 1.4 oil immersion objective (Olympus) and an sCMOS camera (PCO). […]

Assay [2] relates to HeLa cells expressing FUS GFP. The assay is described as follows: HeLa cell compound dose responses (FUS GFP, arsenate stress). It counts as cell-based.
[3] abbreviates: 1 h pre-treatment, 1 h arsenate stress.

Take `NC(=O)CCCCC1CCSS1` (racemic) [lipoamide, 5-(1,2-dithiolan-3-yl)pentanamide]: the “localisation of EWSR1, TIAL1, PABPC1, G3BP1 GFP to stress granules” value in assay [1] was “localised to stress granules in the absence of treatment, and not in the presence”. Besides, the “conditions (KCl concentration) under which FUS phase separates” value on FUS GFP is “slightly increasing the minimum KCl concentration at which phase separation would occur”. The “EC50 reducing stress granule number, compared among compounds” value in assay [2] (1 h 1 mM arsenate stress) is on record as “comparable EC50”. In assay [2] (setting [3]), the “nuclear/cytoplasm FUS partition, dose response” value is listed as “increased nuclear/cytoplasm FUS partition” and the “stress granule number, dose response” value is “reducing the number of stress granules”. In assay [2] (Homo sapiens, HeLa FUS GFP, 1 h 1 mM arsenate stress, read-out: cellular EC50), the half-maximal effective concentration (EC50) (commonly the midpoint of the concentration-response curve) was about 10 µM.

`O=C(O)CCCCC1CCSS1` (racemic) [lipoic acid, 5-(1,2-dithiolan-3-yl)pentanoic acid]: the “localisation of EWSR1, TIAL1, PABPC1, G3BP1 GFP to stress granules” value in assay [1] was “localised to stress granules in the absence of treatment, and not in the presence”. In addition, on FUS GFP, the “conditions (KCl concentration) under which FUS phase separates” value is “slightly increasing the minimum KCl concentration at which phase separation would occur”. Besides, in assay [2] (1 h 1 mM arsenate stress), the “EC50 reducing stress granule number, compared among compounds” value was “comparable EC50”.
